Laboratory results reported in the NIST ThermoML archive (doi:10.1021/je700029q).
Where “and” joins values, the source holds several entries; their conditions need not be identical. Identical values can stand only once. ± gives the expanded uncertainty stated by the source.

Assays:
[1] = refractive index (Na D-line) (dimensionless); conditions: 298.15 K; 101.33 kPa; Liquid
[2] = 101 kPa, Liquid
[3] = xn = mol fraction of the nth substance listed; conditions: 101 kPa, Liquid
[4] = refractive index (Na D-line) (dimensionless); xn = mol fraction of the nth substance listed; conditions: 298.15 K, 101 kPa, Liquid

CCOS(=O)(=O)[O-].CCn1cc[n+](C)c1 [1-ethyl-3-methylimidazolium ethyl sulfate]
Conditions | refractive index
[1] | 1.4794 ± 0.0013

[2]
Conditions | mass density [kg/m3] | speed of sound | viscosity [mPa·s]
298.15 K | 1237.6 ± 9.2 | 1679 ± 8 m/s | 97.58 ± 5.1
313.15 K | 1227.5 ± 9 | 1641 ± 8 m/s and 1642 ± 8 m/s and 1643 ± 8 m/s | 50.01 ± 1.3
328.15 K | 1217.5 ± 8.9 | 1605 ± 8 m/s | 29.18 ± 0.92

CCOS(=O)(=O)[O-].CCn1cc[n+](C)c1 [1-ethyl-3-methylimidazolium ethyl sulfate] + CCCO
[3]
Conditions | mass density, 298.15 K [kg/m3] | mass density, 313.15 K [kg/m3] | mass density, 328.15 K [kg/m3] | speed of sound, 298.15 K [m/s] | speed of sound, 313.15 K [m/s] | speed of sound, 328.15 K [m/s] | viscosity, 298.15 K [mPa·s] | viscosity, 313.15 K [mPa·s] | viscosity, 328.15 K [mPa·s]
x2 = 0 | 1237.6 ± 9.2 | 1227.5 ± 9 | 1217.5 ± 8.9 | 1679 ± 8 | 1642 ± 8 | 1605 ± 8 | 97.58 ± 5.1 | 50.01 ± 1.3 | 29.18 ± 0.92
x2 = 0.1619 | 1208.1 ± 6.3 | 1197.9 ± 6.2 | 1187.6 ± 6.1 | 1637 ± 8 | 1600 ± 8 | 1565 ± 7 | 60.85 ± 1.6 | 33.73 ± 0.94 | 20.84 ± 0.59
x2 = 0.2104 | 1197.9 ± 5.6 | 1187.6 ± 5.5 | 1177.3 ± 5.4 | 1620 ± 7 | 1584 ± 7 | 1548 ± 7 | 52.11 ± 1.1 | 29.56 ± 0.8 | 18.59 ± 0.51
x2 = 0.336 | 1167.4 ± 4 | 1157.1 ± 3.9 | 1146.7 ± 3.8 | 1574 ± 7 | 1537 ± 7 | 1501 ± 7 | 34.41 ± 0.84 | 20.72 ± 0.51 | 13.61 ± 0.34
x2 = 0.5159 | 1111.6 ± 2.1 | 1100.8 ± 2.1 | 1090.2 ± 2 | 1492 ± 6 | 1456 ± 6 | 1419 ± 6 | 18.01 ± 0.4 | 11.73 ± 0.27 | 8.159 ± 0.19
x2 = 0.7298 | 1015.5 ± 0.7 | 1004.4 ± 0.7 | 993.2 ± 0.7 | 1382 ± 6 | 1340 ± 6 | 1300 ± 5 | 7.296 ± 0.16 | 5.125 ± 0.12 | 3.774 ± 0.089
x2 = 0.8046 | 970 ± 0.6 | 958.6 ± 0.6 | 947.2 ± 0.6 | 1337 ± 6 | 1294 ± 5 | 1252 ± 5 | 5.491 ± 0.12 | 3.918 ± 0.09 | 2.918 ± 0.068
x2 = 0.8894 | 907.7 ± 0.6 | 895.9 ± 0.6 | 884 ± 0.7 | 1284 ± 5 | 1238 ± 5 | 1193 ± 5 | 3.577 ± 0.081 | 2.58 ± 0.06 | 1.923 ± 0.046
x2 = 0.9401 | 862.5 ± 0.7 | 850.6 ± 0.7 | 838.5 ± 0.8 | 1249 ± 5 | 1201 ± 5 | 1154 ± 5 | 2.776 ± 0.064 | 1.997 ± 0.047 | 1.482 ± 0.038
x2 = 0.9727 | 829.8 ± 0.8 | 817.8 ± 0.8 | 805.5 ± 0.9 | 1227 ± 5 | 1178 ± 5 | 1130 ± 5 | 2.419 ± 0.056 | 1.729 ± 0.043 | 1.272 ± 0.035

[4]
Conditions | refractive index
x2 = 0 | 1.4794 ± 0.0013
x2 = 0.1619 | 1.47317 ± 0.0012
x2 = 0.2104 | 1.47102 ± 0.0012
x2 = 0.336 | 1.46449 ± 0.0011
x2 = 0.5159 | 1.4524 ± 0.001
x2 = 0.7298 | 1.43139 ± 0.00091
x2 = 0.8046 | 1.42139 ± 0.00089
x2 = 0.8894 | 1.40743 ± 0.00087
x2 = 0.9401 | 1.39739 ± 0.00087
x2 = 0.9727 | 1.39003 ± 0.00086

CCOS(=O)(=O)[O-].CCn1cc[n+](C)c1 [1-ethyl-3-methylimidazolium ethyl sulfate] + CO
[3]
Conditions | mass density, 298.15 K [kg/m3] | mass density, 313.15 K [kg/m3] | mass density, 328.15 K [kg/m3] | speed of sound, 298.15 K [m/s] | speed of sound, 313.15 K [m/s] | speed of sound, 328.15 K [m/s] | viscosity, 298.15 K [mPa·s] | viscosity, 313.15 K [mPa·s] | viscosity, 328.15 K [mPa·s]
x2 = 0 | 1237.6 ± 9.2 | 1227.5 ± 9 | 1217.5 ± 8.9 | 1679 ± 8 | 1641 ± 8 | 1605 ± 8 | 97.58 ± 5.1 | 50.01 ± 1.3 | 29.18 ± 0.92
x2 = 0.1346 | 1224.2 ± 6.9 | 1214.1 ± 6.8 | 1204 ± 6.7 | 1663 ± 8 | 1627 ± 8 | 1588 ± 8 | 60.93 ± 1.6 | 33.83 ± 0.96 | 20.92 ± 0.6
x2 = 0.2595 | 1209.1 ± 5.1 | 1199 ± 5 | 1188.6 ± 4.9 | 1640 ± 7 | 1603 ± 7 | 1564 ± 7 | 39.32 ± 1 | 23.4 ± 0.61 | 15.25 ± 0.4
x2 = 0.3267 | 1199.4 ± 4.3 | 1189.1 ± 4.2 | 1178.8 ± 4.1 | 1624 ± 7 | 1587 ± 7 | 1549 ± 7 | 30.59 ± 0.74 | 18.94 ± 0.47 | 12.65 ± 0.32
x2 = 0.4741 | 1171.9 ± 2.8 | 1161.3 ± 2.7 | 1150.7 ± 2.7 | 1583 ± 7 | 1546 ± 7 | 1506 ± 7 | 16.38 ± 0.37 | 11.02 ± 0.26 | 7.887 ± 0.19
x2 = 0.5701 | 1146.8 ± 2 | 1135.9 ± 2 | 1125.1 ± 1.9 | 1547 ± 6 | 1509 ± 6 | 1469 ± 6 | 10.12 ± 0.23 | 7.173 ± 0.17 | 5.387 ± 0.13
x2 = 0.6664 | 1113.9 ± 1.4 | 1102.9 ± 1.3 | 1091.8 ± 1.3 | 1500 ± 6 | 1461 ± 6 | 1420 ± 6 | 6.45 ± 0.14 | 4.776 ± 0.11 | 3.661 ± 0.088
x2 = 0.7757 | 1059 ± 0.8 | 1047.5 ± 0.7 | 1035.9 ± 0.7 | 1423 ± 6 | 1382 ± 6 | 1340 ± 6 | 3.232 ± 0.076 | 2.508 ± 0.059 | 2.02 ± 0.049
x2 = 0.8294 | 1021.1 ± 0.5 | 1009.2 ± 0.5 | 997.3 ± 0.5 | 1371 ± 6 | 1330 ± 5 | 1287 ± 5 | 2.351 ± 0.055 | 1.86 ± 0.045 | 1.501 ± 0.039
x2 = 0.923 | 924.9 ± 0.5 | 912.2 ± 0.6 | 899.3 ± 0.6 | 1251 ± 5 | 1207 ± 5 | 1162 ± 5 | 1.639 ± 0.042 | 0.901 ± 0.03 | 0.666 ± 0.026
x2 = 0.9626 | 863.7 ± 0.7 | 850.4 ± 0.7 | 836.9 ± 0.8 | 1187 ± 5 | 1137 ± 5 | 1090 ± 5 | 1.263 ± 0.035 | 0.66 ± 0.026 | 0.551 ± 0.024
x2 = 0.9917 | 806 ± 0.9 | 792.2 ± 0.9 | 777.7 ± 0.9 | 1123 ± 5 | 1076 ± 5 | 1029 ± 5 | 1.039 ± 0.031 | 0.516 ± 0.024 | 0.43 ± 0.023

[4]
Conditions | refractive index
x2 = 0 | 1.4794 ± 0.0013
x2 = 0.1346 | 1.47491 ± 0.0012
x2 = 0.2595 | 1.47006 ± 0.0011
x2 = 0.3267 | 1.46675 ± 0.0011
x2 = 0.4741 | 1.45742 ± 0.001
x2 = 0.5701 | 1.44913 ± 0.00097
x2 = 0.6664 | 1.43808 ± 0.00093
x2 = 0.7757 | 1.42043 ± 0.0009
x2 = 0.8294 | 1.4078 ± 0.00088
x2 = 0.923 | 1.37377 ± 0.00087
x2 = 0.9626 | 1.35299 ± 0.00086
x2 = 0.9917 | 1.33319 ± 0.00086

CO [methanol]
Conditions | refractive index
[1] | 1.32687 ± 0.00086

[2]
Conditions | mass density [kg/m3] | speed of sound [m/s] | viscosity [mPa·s]
298.15 K | 786.4 ± 0.9 | 1103 ± 5 | 0.546 ± 0.024
313.15 K | 772.3 ± 1 | 1055 ± 5 | 0.446 ± 0.023
328.15 K | 757.8 ± 1 | 1006 ± 4 | 0.369 ± 0.022

CO [methanol] + CCOS(=O)(=O)[O-].CCn1cc[n+](C)c1
[3], x1 = 1
Conditions | mass density [kg/m3] | speed of sound [m/s] | viscosity [mPa·s]
298.15 K | 786.4 ± 0.9 | 1103 ± 5 | 0.546 ± 0.024
313.15 K | 772.3 ± 1 | 1055 ± 5 | 0.446 ± 0.023
328.15 K | 757.8 ± 1 | 1006 ± 4 | 0.369 ± 0.022

Conditions | refractive index
[4], x1 = 1 | 1.32687 ± 0.00086

CCCO [propan-1-ol]
Conditions | refractive index
[1] | 1.3831 ± 0.00086

[2]
Conditions | mass density [kg/m3] | speed of sound [m/s] | viscosity [mPa·s]
298.15 K | 799.6 ± 0.9 | 1207 ± 5 | 2.017 ± 0.047
313.15 K | 787.4 ± 0.9 | 1155 ± 5 | 1.43 ± 0.037
328.15 K | 774.8 ± 1 | 1105 ± 5 | 1.041 ± 0.031

CCCO [propan-1-ol] + CCOS(=O)(=O)[O-].CCn1cc[n+](C)c1
[3], x1 = 1
Conditions | mass density [kg/m3] | speed of sound [m/s] | viscosity [mPa·s]
298.15 K | 799.6 ± 0.9 | 1207 ± 5 | 2.017 ± 0.047
313.15 K | 787.4 ± 0.9 | 1155 ± 5 | 1.43 ± 0.037
328.15 K | 774.8 ± 1 | 1105 ± 5 | 1.041 ± 0.031

Conditions | refractive index
[4], x1 = 1 | 1.3831 ± 0.00086

CC(C)O [propan-2-ol]
Conditions | refractive index
[1] | 1.37495 ± 0.00086

[2]
Conditions | mass density [kg/m3] | speed of sound [m/s] | viscosity [mPa·s]
298.15 K | 780.7 ± 0.9 | 1138 ± 5 | 2.082 ± 0.049
313.15 K | 767.8 ± 1 | 1085 ± 5 | 1.354 ± 0.036
328.15 K | 753.9 ± 1 | 1031 ± 5 | 0.919 ± 0.03

CC(C)O [propan-2-ol] + CCOS(=O)(=O)[O-].CCn1cc[n+](C)c1
[3], x1 = 1
Conditions | mass density [kg/m3] | speed of sound [m/s] | viscosity [mPa·s]
298.15 K | 780.7 ± 0.9 | 1138 ± 5 | 2.082 ± 0.049
313.15 K | 767.8 ± 1 | 1085 ± 5 | 1.354 ± 0.036
328.15 K | 753.9 ± 1 | 1031 ± 5 | 0.919 ± 0.03

Conditions | refractive index
[4], x1 = 1 | 1.37495 ± 0.00086
